What was measured:
Vasopressin V1a receptor [1] = target: T1, Vasopressin V1a receptor (Homo sapiens, UniProt P37288); assay: Displacement of [3H]manning ligand from human vasopressin V1a receptor expressed in CHO cells; type: cell-based
Target sequence in this assay (P37288 whole entry): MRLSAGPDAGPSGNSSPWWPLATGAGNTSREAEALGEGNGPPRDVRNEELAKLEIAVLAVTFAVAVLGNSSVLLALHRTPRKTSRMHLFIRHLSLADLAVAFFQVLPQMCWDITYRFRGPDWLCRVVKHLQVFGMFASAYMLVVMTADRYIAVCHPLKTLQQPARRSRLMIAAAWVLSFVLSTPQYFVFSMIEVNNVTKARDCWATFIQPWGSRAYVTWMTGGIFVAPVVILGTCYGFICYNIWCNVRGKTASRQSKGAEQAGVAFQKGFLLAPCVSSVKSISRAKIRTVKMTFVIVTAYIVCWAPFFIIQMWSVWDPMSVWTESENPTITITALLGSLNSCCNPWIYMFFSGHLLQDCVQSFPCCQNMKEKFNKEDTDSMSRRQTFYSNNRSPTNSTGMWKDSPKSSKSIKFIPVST

Rattus norvegicus [2] = assay: Effect on urine volume in rat 10 mg/kg, po relative to control; type: functional
Oxytocin receptor = target: T2, Oxytocin receptor (Homo sapiens, UniProt P30559); assay: Displacement of [3H]oxytocin from human oxytocin receptor expressed in CHO cells; type: cell-based
T2 sequence (P30559 whole entry): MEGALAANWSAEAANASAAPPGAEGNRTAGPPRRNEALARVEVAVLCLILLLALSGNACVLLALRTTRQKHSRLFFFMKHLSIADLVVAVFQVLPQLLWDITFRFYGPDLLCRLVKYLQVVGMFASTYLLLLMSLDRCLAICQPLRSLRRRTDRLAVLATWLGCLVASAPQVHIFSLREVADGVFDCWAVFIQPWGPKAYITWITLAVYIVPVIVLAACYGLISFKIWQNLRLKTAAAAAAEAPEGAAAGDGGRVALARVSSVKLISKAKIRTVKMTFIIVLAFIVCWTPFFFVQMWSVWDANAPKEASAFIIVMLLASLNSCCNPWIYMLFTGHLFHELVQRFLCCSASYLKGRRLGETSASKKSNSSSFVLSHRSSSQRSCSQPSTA

Vasopressin V2 receptor [3] = target: T3, Vasopressin V2 receptor (Homo sapiens, UniProt P30518); assay: Displacement of [3H]AVP from human vasopressin V2 receptor expressed in CHO cells; type: cell-based
T3 sequence (P30518 whole entry): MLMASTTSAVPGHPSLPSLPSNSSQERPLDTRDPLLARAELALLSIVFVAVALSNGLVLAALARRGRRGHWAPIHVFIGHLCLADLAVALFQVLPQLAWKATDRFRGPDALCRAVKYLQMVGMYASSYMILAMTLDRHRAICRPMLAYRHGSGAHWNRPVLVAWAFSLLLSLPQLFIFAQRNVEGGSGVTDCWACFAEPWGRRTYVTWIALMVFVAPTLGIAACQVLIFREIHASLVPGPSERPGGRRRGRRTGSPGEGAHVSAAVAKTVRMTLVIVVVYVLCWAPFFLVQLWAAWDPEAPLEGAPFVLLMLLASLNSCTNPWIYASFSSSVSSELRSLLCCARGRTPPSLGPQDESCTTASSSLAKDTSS

Vasopressin V2 receptor [4] = target: T3, Vasopressin V2 receptor; assay: Displacement of [3H]AVP from human vasopressin V2 receptor expressed in CHO cells at 1000 nM; type: cell-based
[5] = target: T4, Oxytocin receptor (Homo sapiens) (UniProt P30559); assay: Displacement of [3H]oxytocin from human oxytocin receptor expressed in CHO cells at 1000 nM; type: cell-based
T4 sequence (whole entry): T2 sequence (P30559 whole entry)

Vasopressin V2 receptor [6] = target: T3, Vasopressin V2 receptor; assay: Displacement of [3H]AVP from human vasopressin V2 receptor expressed in mouse LV2 cells; type: cell-based
Vasopressin V1a receptor [7] = target: T1, Vasopressin V1a receptor; assay: Displacement of [3H]manning ligand from human vasopressin V1a receptor expressed in CHO cells at 1000 nM; type: cell-based
Target sequence in this assay (P37288 whole entry, looked up): as the sequence (P37288 whole entry) above

Rattus norvegicus [8] = assay: Effect on urine volume in rat 10 mg/kg, iv relative to control; type: functional
[9] = target: T4, Oxytocin receptor (Homo sapiens); assay: Displacement of [3H]oxytocin from human oxytocin receptor expressed in CHO cells at 100 nM; type: cell-based
Vasopressin V1a receptor [10] = target: T1, Vasopressin V1a receptor; assay: Displacement of [3H]manning ligand from human vasopressin V1a receptor expressed in CHO cells at 100 nM; type: cell-based
Target sequence in this assay (P37288 whole entry, looked up): as the sequence (P37288 whole entry) above

Vasopressin V2 receptor [11] = target: T3, Vasopressin V2 receptor; assay: Displacement of [3H]AVP from human vasopressin V2 receptor expressed in CHO cells at 100 nM; type: cell-based

Row | Compound | IC50 (Vasopressin V1a receptor [1]) | IC50 (Oxytocin receptor) | Activity (Rattus norvegicus [2]) | also measured
1 | Cc1ccn(-c2ccc(C(=O)Nc3ccccc3Cn3cccc3C(=O)O)c(Cl)c2)n1 |  |  |  | inhibition (Vasopressin V2 receptor [4]): 1%; inhibition [5]: -10%
2 | Cc1ccn(-c2ccc(C(=O)N3C=C4CCC(=O)N4Cc4ccccc43)c(Cl)c2)n1 |  |  | 0% | IC50 (Vasopressin V2 receptor [6]): 1.21 µM; inhibition (Vasopressin V1a receptor [7]): 4%
3 | Cc1ccc(F)cc1C(=O)Nc1ccc(C(=O)N2C=C3C(O)CC(=O)N3Cc3ccccc32)c(Cl)c1 (stereo not drawn) |  |  | 102% | 
4 | O=C(O)c1ccn(-c2ccc(C(=O)N3Cc4cccn4Cc4ccccc43)c(Cl)c2)n1 |  |  | 0% | 
5 | O=C(c1ccc(-n2ccc(CO)n2)cc1Cl)N1Cc2cccn2Cc2ccccc21 |  |  | -82% | 
6 | Cc1ccn(-c2ccc(C(=O)N3CC4C=CC(=O)N4Cc4ccccc43)c(Cl)c2)n1 (stereo not drawn) |  |  | 16% | inhibition (Vasopressin V2 receptor [4]): 16%; inhibition [5]: -4%; inhibition (Vasopressin V1a receptor [7]): -8%
7 | Cc1ccc(F)cc1C(=O)Nc1ccc(C(=O)N2CC3=CCC(=O)N3Cc3ccccc32)c(Cl)c1 |  |  | 131% | 
8 | Cc1ccn(-c2ccc(C(=O)N3CC4=CCC(=O)N4Cc4ccccc43)c(Cl)c2)n1 |  |  | 0% | inhibition (Vasopressin V2 receptor [4]): 40%; inhibition [5]: 9%; inhibition (Vasopressin V1a receptor [7]): -3%
9 | Cc1ccn(-c2ccc(C(=O)Nc3ccccc3C(=O)O)c(Cl)c2)n1 |  |  |  | inhibition (Vasopressin V2 receptor [4]): 3%; inhibition (Vasopressin V1a receptor [7]): -7%
10 | Cc1ccc(F)cc1C(=O)Nc1ccc(C(=O)Nc2ccccc2Cn2cccc2C=O)c(Cl)c1 |  |  |  | inhibition [9]: 12%; inhibition (Vasopressin V1a receptor [10]): -6%; inhibition (Vasopressin V2 receptor [11]): 3%

The next lines start with results.

Row | IC50 (Vasopressin V1a receptor [1]) | IC50 (Oxytocin receptor) | Compound | Activity (Rattus norvegicus [2]) | also measured
11 | > 1 µM | > 1 µM | Cc1ccc(F)cc1C(=O)Nc1ccc(C(=O)N2C=C3CCC(=O)N3Cc3ccccc32)c(Cl)c1 | 133% | IC50 (Vasopressin V2 receptor [3]): 0.011 µM
12 | > 1 µM | > 1 µM | Cc1ccc(F)cc1C(=O)Nc1ccc(C(=O)Nc2ccccc2C(=O)O)c(Cl)c1 |  | Activity (Rattus norvegicus [8]): -6%; IC50 (Vasopressin V2 receptor [3]): > 1 µM
13 | > 1 µM | > 1 µM | Cc1ccc(F)cc1C(=O)Nc1ccc(C(=O)N2CC3C=CC(=O)N3Cc3ccccc32)c(Cl)c1 (stereo not drawn) | -26% | IC50 (Vasopressin V2 receptor [3]): 0.034 µM
14 |  | 0.353 µM | Cc1ccn(-c2ccc(C(=O)N3Cc4cccn4Cc4ccccc43)c(Cl)c2)n1 | -82% | 
15 | 0.124 µM | 0.519 µM | Cc1ccc(F)cc1C(=O)Nc1ccc(C(=O)N2Cc3cccn3Cc3ccccc32)c(Cl)c1 [LIXIVAPTAN] | 740% | 
16 | > 1 µM | > 1 µM | Cc1ccc(F)cc1C(=O)Nc1ccc(C(=O)Nc2ccccc2Cn2cccc2C(=O)O)c(Cl)c1 |  | Activity (Rattus norvegicus [8]): 6.9%; IC50 (Vasopressin V2 receptor [3]): > 1 µM
